These results are taken from ChEMBL document CHEMBL4673209, “Discovery of a novel potent GPR40 full agonist” (Bioorg Med Chem Lett, 2018).

The target of assay [1] is T1, Free fatty acid receptor 1 (Homo sapiens, UniProt O14842). In words: Agonist activity at GPR40 in human islets assessed as induction of glucose-stimulated insulin secretion at 10 uM. It counts as tissue-based. To be noted: Pancreatic islet.
In assay [2] the target is Free fatty acid receptor 1 (Rattus norvegicus) (UniProt Q8K3T4). In words: Agonist activity at GPR40 in rat INS1 (832/13) cells assessed as induction of glucose-stimulated insulin secretion in presence of 10 mM glucose. In kind it is cell-based.
Sequence of Free fatty acid receptor 1 (Rattus norvegicus) (Q8K3T4 whole entry): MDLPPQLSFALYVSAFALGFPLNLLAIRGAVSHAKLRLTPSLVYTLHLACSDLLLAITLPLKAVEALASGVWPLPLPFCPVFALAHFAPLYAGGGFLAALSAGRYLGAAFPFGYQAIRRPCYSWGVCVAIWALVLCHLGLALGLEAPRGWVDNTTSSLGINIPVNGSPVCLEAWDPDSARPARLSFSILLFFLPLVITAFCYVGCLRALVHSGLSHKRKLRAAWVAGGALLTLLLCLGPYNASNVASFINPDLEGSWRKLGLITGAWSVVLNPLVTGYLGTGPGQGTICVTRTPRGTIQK
In assay [3] the target is Free fatty acid receptor 1 (Rattus norvegicus, UniProt Q8K3T4). As to the kind of experiment: Agonist activity at rat GPR40 transfected in HEK293 cells assessed as increase in intracellular calcium level incubated for 1 hr by Fluo-8 dye based fluorescence analysis. In kind it is functional, cell-based.
Sequence of Free fatty acid receptor 1 (Rattus norvegicus, UniProt Q8K3T4) (Q8K3T4 whole entry): as above
Assay [4] has as its target T1, Free fatty acid receptor 1. As to the kind of experiment: Agonist activity at human GPR40 transfected in HEK293 cells assessed as increase in intracellular calcium level incubated for 1 hr by Fluo-8 dye based fluorescence analysis. In kind it is functional, cell-based.
The species named for assay [5] is Mus musculus. In words: Anti-glycemic activity in C57 mouse assessed as reduction in blood glucose excursion measured for 120 mins by IPGTT. It counts as functional, organism-based.
The test system of assay [6] is Mus musculus. As to the kind of experiment: In vivo agonist activity at GPR119 in GPR40 knock-out mouse assessed as induction of GLP-1 secretion at 30 mg/kg. It counts as functional, organism-based.
Assay [7] has as its system Mus musculus. As to the kind of experiment: In vivo agonist activity at GPR119 in C57 mouse assessed as induction of GLP-1 secretion at 30 mg/kg. In kind it is functional, organism-based.
In assay [8] the test system is Mus musculus. As to the kind of experiment: Induction of GLP-1 secretion in GPR40 knock-out mouse at 100 mg/kg. It counts as functional, organism-based.
The test system of assay [9] is Mus musculus. As to the kind of experiment: In vivo agonist activity at GPR40 in C57 mouse assessed as induction of GLP1 secretion at 100 mg/kg. It counts as functional, organism-based.
Assay [10] concerns Rattus norvegicus. In words: Anti-glycemic activity in fasted Sprague-Dawley ZDF rat assessed as reduction in post-prandial hyperglycemia by measuring AUC(0 to 2 hrs) for blood glucose at 10 mg/kg administered daily for 8 days and measured on day 8 by OGTT. It counts as functional. To be noted: time 8 day.
In assay [11] the test system is Rattus norvegicus. As to the kind of experiment: Anti-glycemic activity in fasted Sprague-Dawley ZDF rat assessed as reduction in post-prandial hyperglycemia by measuring AUC(0 to 2 hrs) for blood glucose at 10 mg/kg administered for 1 day and measured on day 1 by OGTT. It counts as functional.
In assay [12] the test system is Rattus norvegicus. In words: Anti-glycemic activity in fasted Sprague-Dawley ZDF rat assessed as reduction in post-prandial hyperglycemia by measuring AUC(0 to 2 hrs) for blood glucose at 3 mg/kg administered daily for 8 days and measured on day 8 by OGTT. It counts as functional. To be noted: time 8 day.
For assay [13], the system named is Rattus norvegicus. As to the kind of experiment: Anti-glycemic activity in fasted Sprague-Dawley ZDF rat assessed as reduction in post-prandial hyperglycemia by measuring AUC(0 to 2 hrs) for blood glucose at 3 mg/kg administered for 1 day and measured on day 1 by OGTT. It counts as functional.
For assay [14], the system named is Rattus norvegicus. In words: Anti-glycemic activity in fasted Sprague-Dawley ZDF rat assessed as increase in insulin secretion by measuring insulin level in plasma at 3 mg/kg administered 30 mins prior to glucose challenge measured after 140 mins by OGTT. It counts as functional. To be noted: time 170 min, 2.833 h.
The subject of assay [15] is Rattus norvegicus. As to the kind of experiment: Anti-glycemic activity in fasted Sprague-Dawley ZDF rat assessed as increase in insulin secretion by measuring insulin level in plasma at 10 mg/kg administered 30 mins prior to glucose challenge measured after 140 mins by OGTT. It counts as functional. To be noted: time 170 min, 2.833 h.
Assay [16] is filed under the species Mus musculus. In words: Anti-glycemic activity in GPR40 knockout mouse assessed as reduction in blood glucose excursion measured for 120 mins by IPGTT. It counts as functional, organism-based.

pEC50: −log10 of the molar value. Activity calls are given as the source filed them. The calls are words filed in the database; no cut-off is given here.

T1 sequence (O14842 whole entry): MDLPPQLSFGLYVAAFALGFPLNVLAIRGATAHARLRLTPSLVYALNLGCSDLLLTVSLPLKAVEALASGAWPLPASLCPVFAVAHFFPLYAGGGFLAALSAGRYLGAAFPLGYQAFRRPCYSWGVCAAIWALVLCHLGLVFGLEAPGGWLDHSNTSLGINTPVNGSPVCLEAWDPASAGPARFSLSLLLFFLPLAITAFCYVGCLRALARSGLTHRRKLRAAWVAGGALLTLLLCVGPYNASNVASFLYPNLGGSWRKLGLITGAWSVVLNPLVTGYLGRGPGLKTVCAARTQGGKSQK

Take `COc1ccc(F)c(-c2ccc(COc3cccc([C@@H](CC(=O)O)C4CC4)c3)cc2C2=CCCC2(C)C)c1`: the Activity entry in assay [1] (filed as agonist) is “Active”; in [2] (INS-1 832/13, filed as agonist) it was “Active”. For the same compound, the pEC50 in assay [3] was 7.94; in assay [4], 8.46.
For the compound `COc1ccc(Cl)cc1C(=O)NCCc1ccc(S(=O)(=O)NC(=O)NC2CCCCC2)cc1`, in the assay filed under Mus musculus [5], the result was Active.
In the case of `COc1ccc(F)c(-c2ncc(COc3cccc([C@@H](CC(=O)O)C4CC4)c3)nc2OCC(C)C)c1`, the pEC50 in [4] is 8.02.
On to `COc1ccc(F)c(-c2cnc(COc3cccc([C@@H](CC(=O)O)C4CC4)c3)nc2C2=CCCC2(C)C)c1`, for which the negative-log EC50 (pEC50) in [3] was 7.15; in assay [4] it was 7.91.
Taken in the same sequence, the figures for `COc1ccc(F)c(-c2ccc(COc3cccc([C@@H](CC(=O)O)C4CC4)c3)nc2C2=CCCC2(C)C)c1` were 7.35 and 8.03.
Take `COc1cc(-c2ncc(COc3cccc([C@@H](CC(=O)O)C4CC4)c3)nc2C2=CCCC2(C)C)c(F)cn1`: the pEC50 in [4] was 7.96.
The same measure, in the same setting: in the case of `COc1ccc(F)c(-c2ncc(COc3cccc([C@@H](CC(=O)O)C4CC4)c3)nc2C=C(C)C)c1` it was 8.03; in that of `COc1ccc(F)c(-c2ncc(COc3cccc([C@@H](CC(=O)O)C4CC4)c3)nc2N2CC3(CCC3)C2)c1`, 8.35.
Regarding `COc1ccc(F)c(-c2cnc(COc3cccc([C@@H](CC(=O)O)C4CC4)c3)cc2C2=CCCC2(C)C)c1`, the pEC50 is 7.34 in assay [3] and 7.96 in [4].
Take `CC(C)OC(=O)N1CCC(Oc2ncnc3c2CCN3c2ccc(S(C)(=O)=O)cc2F)CC1`: the result with Mus musculus [6] and with Mus musculus [7] was Active.
Regarding `Cc1cc(OCCCS(C)(=O)=O)cc(C)c1-c1cccc(COc2ccc3c(c2)OC[C@H]3CC(=O)O)c1` [FASIGLIFAM], the outcome (in the assay on Mus musculus [8]; with Mus musculus [9]; in the assay filed under Mus musculus [16]; in [1]; in assay [2] (INS-1 832/13)) was inactive. The Activity in the assay with Rattus norvegicus [10] was determined as 135502 ng/mL.hr; in the assay with Rattus norvegicus [11], 59293 ng/mL.hr; in the assay on Rattus norvegicus [12], 20561 ng/mL.hr; with Rattus norvegicus [13], 12194 ng/mL.hr; with Rattus norvegicus [14] it was 4020 ng/mL; in the assay on Rattus norvegicus [15], 19250 ng/mL. Besides, the result in the assay listed under Mus musculus [5] was Active.
For `COc1ccc(F)c(-c2ncc(COc3cccc([C@@H](CC(=O)O)C4CC4)c3)cc2C2=CCCC2(C)C)c1`, the pEC50 is 7.19 in assay [3] and 7.67 in [4].
Taken in the same sequence, the figures for `CCCCc1nc(COc2cccc([C@@H](CC(=O)O)C3CC3)c2)cnc1-c1cc(OC)ccc1F` were 7.55 and 8.60.
With `COc1ccc(F)c(-c2ncc(COc3cccc([C@@H](CC(=O)O)C4CC4)c3)nc2-c2cc(C)cc(C)c2)c1`, the pEC50 in assay [4] was 8.12.
As for `COc1ccc(F)c(-c2ncc(COc3cccc([C@@H](CC(=O)O)C4CC4)c3)nc2C2=CCCC2(C)C)c1`, in assay [3], the pEC50 is 6.70.
Consider `COc1ccc(F)c(-c2ncc(COc3cccc([C@@H](CC(=O)O)C4CC4)c3)nc2CC(C)(C)C)c1`, for which the pEC50 in assay [4] (hek293) was 8.70.
